Reference: US8728517B2, “Pharmaceutical compositions of entacapone co-micronized with sugar alcohols” (Wockhardt Ltd., priority 2008, dated 2014)

Test: Percent drug release of poorly soluble drugs combined with sugar alcohols
Assay type: physicochemical
Details: for effect on percent release: with sugar alcohols like mannitol or sorbitol, as physical mixture or complex

Compound | effect on percent drug release (co-micronized with sugar alcohols vs formulation not co-micronized with a sugar alcohol) | effect on percent release
CCN(CC)C(=O)/C(C#N)=C/c1cc(O)c(O)c([N+](=O)[O-])c1 [entacapone, (E)-2-cyano-3-(3,4-dihydroxy-5-nitrophenyl)-N,N-diethyl-2-propenamide] | significant increase | –
O=C1CCc2ccc(OCCCCN3CCN(c4cccc(Cl)c4Cl)CC3)cc2N1 [aripiprazole] | – | does not make any significant difference
CCCCC1=NC2(CCCC2)C(=O)N1Cc1ccc(-c2ccccc2-c2nnn[nH]2)cc1 [irbesartan] | – | does not make any significant difference
